Assay results: ChEMBL document CHEMBL4428126, “Identification and Structural Characterization of Three New Metabolites of Bupropion in Humans” (ACS Med Chem Lett, 2016)

Key:
[1] = Drug recovery in urine of human treated with bupropion assessed as free drug level administered orally measured over steady state dosing interval; type: ADME, tissue-based; conditions: po
[2] = Drug level in human liver microsome treated with bupropion at 10 uM preincubated for 5 mins followed by addition of NADPH measured after 20 mins by LC-MS/MS analysis; type: ADME; conditions: microsomes
[3] = Drug metabolism in human liver cytosol assessed as formation of metabolites with m/z transitions of 258 to 184 at 10 uM preincubated for 5 mins followed by addition of NADPH measured after 20 mins by LC-MS/MS analysis; type: ADME, subcellular
Cytochrome P450 2C19 [4] = target: T1, Cytochrome P450 2C19 (Homo sapiens, UniProt P33261); assay: Drug metabolism assessed as recombinant CYP2C19 (unknown origin)-mediated erythro-4'-OH-bupropion formation at 1 uM preincubated for 5 mins followed by addition of NADPH measured after 20 mins by LC-MS/MS method; type: ADME; conditions: recombinant enzyme
[5] = Drug metabolism in human liver microsomes assessed as formation of metabolites with m/z transitions of 258 to 184 at 10 uM preincubated for 5 mins followed by addition of NADPH measured after 20 mins by LC-MS/MS analysis; type: ADME, Microsome
[6] = Drug recovery in urine of human treated with bupropion assessed as conjugated drug level administered orally measured over steady state dosing interval; type: ADME; conditions: po
Cytochrome P450 2C19 [7] = target: T1, Cytochrome P450 2C19; assay: Drug metabolism assessed as recombinant CYP2C19 (unknown origin)-mediated threo-4'-OH-bupropion formation at 1 uM preincubated for 5 mins followed by addition of NADPH measured after 20 mins by LC-MS/MS method; type: ADME; conditions: recombinant enzyme
[8] = Drug metabolism in human liver microsomes assessed as hydroxylation of t-butyl group preincubated for 5 mins followed by addition of NADPH measured after 20 mins by LC-MS/MS analysis; type: ADME, Microsome
[9] = Drug level in plasma of human subjects assessed as compound formation treated with 300 mg/day bupropion by LC/MS/MS analysis; type: ADME, cell-free
[10] = Drug level in human liver microsomes treated with 10 uM threohydrobupropion assessed as compound formation with m/z transitions of 258 to 184 preincubated for 5 mins followed by addition of NADPH measured after 20 mins by LC-MS/MS analysis; type: ADME, Microsome
[11] = Drug metabolism in acid deconjugated urine of human subjects assessed as metabolite M4 formation at 300 mg/day by LC/MS/MS analysis; type: ADME, tissue-based
[12] = Drug level in human liver microsomes treated with threohydrobupropion-d9 assessed as hydroxylation of t-butyl group preincubated for 5 mins followed by addition of NADPH measured after 20 mins by LC-MS/MS analysis; type: ADME, Microsome
[13] = Drug excretion in acid deconjugated urine of human subjects treated with 300 mg/day bupropion by LC/MS/MS analysis; type: ADME, tissue-based
[14] = Drug level in human liver microsomes treated with 10 uM erythrohydrobupropion assessed as compound formation with m/z transitions of 258 to 184 preincubated for 5 mins followed by addition of NADPH measured after 20 mins by LC-MS/MS analysis; type: ADME, Microsome
[15] = Drug recovery in human urine assessed as conjugated drug level administered orally measured over steady state dosing interval; type: ADME, tissue-based; conditions: po
[16] = Drug excretion in human urine assessed as m-chlorohippuric acid administered as single oral dosage; type: ADME, tissue-based
[17] = Drug metabolism in plasma of human subjects assessed as metabolite M4 formation at 300 mg/day by LC/MS/MS analysis; type: ADME, cell-free
Cytochrome P450 2C19 [18] = target: T1, Cytochrome P450 2C19; assay: Drug metabolism assessed as recombinant CYP2C19 (unknown origin)-mediated 4'-OH-bupropion formation at 1 uM preincubated for 5 mins followed by addition of NADPH measured after 20 mins by LC-MS/MS method; type: ADME; conditions: recombinant enzyme
[19] = Drug recovery in human urine assessed as erythrohydrobupropion administered as single oral dosage; type: ADME, tissue-based
[20] = Drug metabolism in human liver microsomes assessed as NADPH-dependant 4'-OH-bupropion formation at 10 uM preincubated for 5 mins followed by addition of NADPH measured after 20 mins by LC-MS/MS analysis; type: ADME, Microsome
[21] = Drug excretion in human urine assessed as polar metabolites formation administered as single oral dosage; type: ADME, tissue-based
[22] = Drug metabolism in acid deconjugated urine of human subjects assessed as metabolite M3 formation at 300 mg/day by LC/MS/MS analysis; type: ADME, tissue-based
[23] = Drug excretion in human urine assessed as 4'-OH-bupropion formation at 300 mg/day by LC/MS/MS analysis; type: ADME, tissue-based
[24] = Drug metabolism in acid deconjugated urine of human subjects assessed as metabolite M7 formation at 300 mg/day by LC/MS/MS analysis; type: ADME, tissue-based
[25] = Drug metabolism in human urine assessed as metabolite M2 formation at 300 mg/day by LC/MS/MS analysis-MS analysis; type: ADME, tissue-based
[26] = Drug recovery in human urine assessed as free and conjugated drug level administered orally measured over steady state dosing interval; type: ADME, tissue-based; conditions: po
[27] = Drug metabolism in plasma of human subjects assessed as metabolite M6 formation at 300 mg/day by LC/MS/MS analysis; type: ADME, cell-free
[28] = Drug recovery in human urine assessed as OH-bupropion administered as single oral dosage; type: ADME, tissue-based
[29] = Plasma concentration in human assessed as erythro-4'-OH-bupropion at 300 mg/day by LC/MS/MS analysis; type: ADME, cell-free
[30] = Drug recovery in human urine assessed as free drug level administered orally measured over steady state dosing interval; type: ADME, tissue-based; conditions: po
[31] = Drug metabolism in human plasma assessed as 4'-OH-bupropion formation at 300 mg/day by LC/MS/MS analysis; type: ADME, cell-free
[32] = Plasma concentration in human assessed as threo-4'-OH-bupropion at 300 mg/day by LC/MS/MS analysis; type: ADME, cell-free
[33] = Drug metabolism in human plasma assessed as metabolite M2 formation at 300 mg/day by LC/MS/MS analysis; type: ADME, cell-free
[34] = Drug recovery in human urine assessed as threohydrobupropion administered as single oral dosage; type: ADME, tissue-based
[35] = Drug metabolism in acid deconjugated urine of human subjects assessed as metabolite M6 formation at 300 mg/day by LC/MS/MS analysis; type: ADME, tissue-based
[36] = Drug metabolism in human liver microsomes assessed as NADPH-dependant metabolite formation at 10 uM preincubated for 5 mins followed by addition of NADPH measured after 20 mins by LC-MS/MS analysis; type: ADME, Microsome
[37] = Drug recovery in human urine administered as single oral dosage; type: ADME, tissue-based; conditions: read-out: Drug recovery
[38] = Plasma concentration in human assessed as 4'-OH-bupropion at 300 mg/day by LC/MS/MS analysis; type: ADME, cell-free
[39] = Drug metabolism in plasma of human subjects assessed as metabolite M7 formation at 300 mg/day by LC/MS/MS analysis; type: ADME, cell-free

T1 sequence (P33261 whole entry): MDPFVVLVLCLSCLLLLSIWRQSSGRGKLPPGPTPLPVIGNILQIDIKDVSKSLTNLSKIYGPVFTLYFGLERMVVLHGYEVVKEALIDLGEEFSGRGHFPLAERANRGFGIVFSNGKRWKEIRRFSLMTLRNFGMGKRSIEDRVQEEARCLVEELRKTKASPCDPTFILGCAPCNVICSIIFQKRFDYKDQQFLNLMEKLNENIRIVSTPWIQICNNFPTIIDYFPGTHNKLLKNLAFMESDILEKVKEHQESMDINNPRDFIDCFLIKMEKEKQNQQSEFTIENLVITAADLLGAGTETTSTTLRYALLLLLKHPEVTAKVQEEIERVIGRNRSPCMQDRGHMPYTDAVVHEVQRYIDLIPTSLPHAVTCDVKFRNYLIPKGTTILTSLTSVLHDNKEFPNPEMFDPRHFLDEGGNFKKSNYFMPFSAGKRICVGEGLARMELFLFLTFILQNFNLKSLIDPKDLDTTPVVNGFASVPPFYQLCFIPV

Structure (SMILES): C[C@@H](NC(C)(C)C)[C@H](O)c1cccc(Cl)c1
- Drug recovery [1]: 63 µmol
- Drug metabolism [2]: Metabolite_Detected
- Drug metabolism [3]: Metabolite_Notdetected
- Drug metabolism (Cytochrome P450 2C19 [4]): Metabolite_Detected
- Drug metabolism [5]: Metabolite_Detected
- Drug recovery [6]: 22 µmol

Structure (SMILES): C[C@@H](NC(C)(C)C)[C@@H](O)c1cccc(Cl)c1
- Drug recovery [1]: 610 µmol
- Drug metabolism [2]: Metabolite_Detected
- Drug metabolism [3]: Metabolite_Notdetected
- Drug metabolism (Cytochrome P450 2C19 [7]): Metabolite_Detected
- Drug metabolism [5]: Metabolite_Detected
- Drug recovery [6]: 250 µmol

Structure (SMILES): [2H]C([2H])([2H])C(N[C@H](C)[C@@H](O)c1cccc(Cl)c1)(C([2H])([2H])[2H])C([2H])([2H])[2H]
- Drug metabolism [8]: Metabolite_Notdetected

Structure (SMILES): C[C@@H](NC(C)(C)C)[C@H](O)c1ccc(O)c(Cl)c1
- Drug metabolism [9]: Metabolite_Detected
- Drug recovery [1]: 3.3 µmol
- Drug metabolism [10]: Metabolite_Detected
- Drug metabolism [11]: Metabolite_Detected
- Drug metabolism [12]: Metabolite_Detected
- Drug excretion [13]: Metabolite_Detected
- Drug metabolism [5]: Metabolite_Detected
- Drug recovery [6]: 160 µmol

Structure (SMILES): CC(NC(C)(C)C)C(=O)c1ccc(O)c(Cl)c1 (stereo not given)
- Drug recovery [1]: 0.3 µmol
- Drug metabolism [2]: Metabolite_Detected
- Drug metabolism [3]: Metabolite_Notdetected
- Drug excretion [13]: Metabolite_Detected
- Drug recovery [6]: 29 µmol

Structure (SMILES): CC1NC(C)(C)COC1(O)c1cccc(Cl)c1 (stereo not given)
- Drug recovery [1]: 77 µmol
- Drug metabolism [2]: Metabolite_Detected
- Drug metabolism [3]: Metabolite_Notdetected
- Drug metabolism [5]: Metabolite_Notdetected
- Drug recovery [6]: 110 µmol

Structure (SMILES): O=C(O)CNC(=O)c1cccc(Cl)c1
- Drug recovery [1]: 167 µmol

Structure (SMILES): C[C@@H](NC(C)(C)C)[C@@H](O)c1ccc(O)c(Cl)c1 (relative stereo)
- Drug metabolism [9]: Metabolite_Detected
- Drug recovery [1]: 0.9 µmol
- Drug metabolism [11]: Metabolite_Detected
- Drug metabolism [14]: Metabolite_Detected
- Drug excretion [13]: Metabolite_Detected
- Drug metabolism [5]: Metabolite_Detected
- Drug recovery [6]: 200 µmol

Structure (SMILES): CC(NC(C)(C)C)C(=O)c1cccc(Cl)c1 (stereo not given) [BUPROPION]
- Drug recovery [15]: 6.5 µmol
- Drug excretion [16]: 22 %ID
- Drug metabolism [17]: Metabolite_Detected
- Drug metabolism [11]: Metabolite_Detected
- Drug metabolism (Cytochrome P450 2C19 [18]): Metabolite_Detected
- Drug recovery [19]: 23 %ID
- Drug metabolism [20]: Metabolite_Detected
- Drug excretion [21]: 36 %ID
- Drug metabolism [22]: Metabolite_Detected
- Drug excretion [23]: Metabolite_Detected
- Drug metabolism [24]: Metabolite_Detected
- Drug metabolism [25]: Metabolite_Notdetected
- Drug recovery [26]: 1.4 %ID
- Drug metabolism [27]: Metabolite_Detected
- Drug recovery [28]: 23 %ID
- concentration [29]: 0.033 µM
- Drug recovery [30]: 59 µmol
- Drug metabolism [31]: Metabolite_Detected
- concentration [32]: 0.007 µM
- Drug metabolism [33]: Metabolite_Notdetected
- Drug recovery [34]: 23 %ID
- Drug metabolism [35]: Metabolite_Detected
- Drug metabolism [36]: Metabolite_Detected
- dose excreted [37]: 23%
- concentration [38]: 0.012 µM
- Drug metabolism [39]: Metabolite_Detected
